“Also recorded” adds a separate entry of the source.
Experiments:
[1] = test system: human ipsc-derived neurons (iN); experiment: Spontaneous synaptic currents in iPSC-derived neurons (iN); type: cell-based; conditions: addition of CNQX
From the text: FIG. 14A-14E. The differentiated neurons (iN) in culture are making functional synapses. • A) DIC image of human ipsc-derived neurons (iN) in culture of DIV25.

[2] = test system: calyx of Held presynaptic terminals; experiment: EPSC recording at the calyx of Held, short-term depression and recovery; type: cell-based, rat
From the text: (§1) Wistar rats (postnatal day 13-15) of either sex were killed by decapitation under isoflurane anesthesia. Transverse brainstem slices (175-200 μm in thickness) containing the medial nucleus of the trapezoid body (MNTB) were cut in ice-cold solution containing (in mM): 200 sucrose, 2.5 KCl, 26 NaHCO3, 1.25 NaH2PO4, 6 MgCl2, 10 glucose, 3 myo-inositol, 2 sodium pyruvate, and 0.5 sodium ascorbate (pH 7.4 when bubbled with 95% O2 and 5% CO2, 310-320 mOsm) by using vibroslicer (VT1200S, Leica). Before recording, slices were incubated for 1 h at 37° C. in standard aCSF solution containing (in mM): 125 NaCl, 2 KCl, 26 NaHCO3, 1.25 NaH2PO4, 2 CaCl2), 1 MgCl2, 10 glucose, 3 myo-inositol, 2 sodium pyruvate, and 0.5 sodium ascorbate (pH 7.4 when bubbled with 95% O2 and 5% CO2, 310-320 mOsm), and maintained thereafter at room temperature (24-26° C.). MNTB principal neurons and calyx of Held presynaptic terminals were visually identified using a ×40 water immersion objective attached to an upright microscope (BX51WI, Olympus).
For recording of evoked EPSCs, simultaneous pre- and postsynaptic whole-cell recordings were made from a calyceal nerve terminal and postsynaptic cell. Throughout the experiments, presynaptic recordings were made in current-clamp mode, whereas postsynaptic recordings were made in voltage-clamp mode at a holding potential of −70 mV. Pipette solution for recording of presynaptic action potentials (APs) contained (mM): 110 K-gluconate, 10 L-glutamate, 30 KCl, 10 HEPES, 0.5 EGTA, 12 Na2-phosphocreatine, 3 MgATP, 1 MgCl2, 0.3 Na2GTP (315 mOsm, pH 7.3 adjusted with KOH), and that for postsynaptic recording contained (mM): 110 CsF, 30 CsCl, 10 HEPES, 5 EGTA, 1 MgCl2, 5 QX314-CI (300 mOsm, pH 7.3 adjusted with CsOH). EPSCs were evoked by current injection (0.5-1 nA, 1 ms) into the presynaptic terminal via a recording glass electrode, in the presence of bicuculline methiodide (10 µM) and strychnine hydrochloride (0.5 μM).

[3] = test system: calyx of Held presynaptic terminals; experiment: Membrane capacitance measurement of exo-endocytosis at the calyx of Held; type: cell-based, rat; conditions: LP-935509 1 or 10 µM in presynaptic terminals
From the text: as §1
Membrane capacitance measurement from the calyx of Held presynaptic terminals, in whole-cell configurations, were made at room temperature (RT, 26-27° C.). Data were acquired at a sampling rate of 50 KHz, using an EPC-10 patch-clamp amplifier controlled by PatchMaster software (HEKA) after on-line filtering at 5 KHz. Calyx of Held terminals were voltage-clamped at a holding potential of −80 mV and a sinusoidal voltage command with a peak-to-peak voltage of 60 mV was applied at 1 KHz. Aak1 inhibitor LP935509 (Axon MedChem) was dissolved in DMSO (0.1%), which was also included in pipette solution, and infused from whole-cell pipettes into calyceal terminals by diffusion. […]
Single-pulse step depolarization to +10 mV for 20 ms was used to induce presynaptic QCa. […] The amplitude of exocytic Cm change (ΔCm) was measured as the difference of Cm values between the baseline and those at 450-500 ms after depolarization. […] The half decay time of endocytosis was measured from the midpoint of ΔCm decay.

calyx of Held = experiment: Simultaneous pre- and postsynaptic action potential recordings, fidelity of neurotransmission; type: cell-based, rat; conditions: p<0.01, n=6
From the text: as §1
For recording postsynaptic action potentials (APs), simultaneous pre- and postsynaptic whole-cell recordings were made from calyceal terminals and postsynaptic MNTB principal neurons, both in current-clamp mode, in the presence of bicuculline methiodide (10 µM) and strychnine hydrochloride (0.5 μM). […]

[4] = from cumulative histograms of EPSC amplitudes

N#Cc1cc2[nH]c(=O)c(=O)[nH]c2cc1[N+](=O)[O-] [CNQX] was tested, and the “spontaneous synaptic currents in iN” value [1] was “abolished”.

With COc1ncccc1-c1cnn2ccc(N3CCN(C(=O)OC(C)C)CC3)nc12 [LP-935509] the “recovery from STD (time constants of Ca2+-dependent fast and Ca2+-independent slow components)” value ([2]; calyx of Held) was “significantly prolonged”, the “short-term depression (STD) of EPSCs” value ([2]; calyx of Held loaded with LP-935509, 100 Hz train, 0.3 s, compared to controls, p<0.05, n=7) was “stronger STD” and the “pool size of readily releasable SVs” value [2, 4] was “reduced”. For the same molecule, the release probability [2, 4] was “without affecting”, the “exocytosis (exocytic capacitance change, ΔCm)” value [3] was “did not indicate a significant reduction; also recorded: remained unchanged” and the “presynaptic Ca2+ current charge (QCa)” value [3] was “remained unchanged”. For the same molecule, the endocytic capacitance change ([3]; p<0.05, n=6) was “significantly prolonged”, the “transmission fidelity (output/input AP ratio), level declined to” value (calyx of Held; 1 μM in presynaptic terminals, 100-Hz stimulation, within 40 s) was ~ 50% and the “fidelity of neurotransmission (ratio of postsynaptic APs to presynaptic APs)” value (calyx of Held; 1 μM) was “significantly impaired”.

— US20260250630A1, “PROTEOMICS-BASED RECEPTOR-LIGAND MATCHING FOR OPTIMIZING STEM CELL REPROGRAMMING” (OKINAWA INSTITUTE OF SCIENCE AND TECHNOLOGY SCHOOL …, priority 2021, published 2026)
